Reference: article PMC10514447 (The Journal of Biological Chemistry, 2023)

System: GCGR ECD
Assay: TIRF-based smFRET of GCGR ECD dynamics in the presence of ligands
Set-up: species or system human
Settings: for smFRET histogram peak location (FRET efficiency), green peak / smFRET histogram peak location (FRET efficiency), red peak: 64 molecules (glucagon), 86 (MK0893)
Source text: We used smFRET to examine the conformational behavior of the GCGR ECD. smFRET is a well-established technique for studying the conformational dynamics of biomolecules at the single molecule level ([38], [39]), as it is sensitive to changes in distances in vitro and in cells ([40]). First, we specifically expressed and purified a GCGR with two surface-exposed cysteines at positions 49 (Cys49) of the ECD and 287 (Cys287) of the extracellular side of helix IV (Fig. S4B). These two cysteines were site-specifically labeled with a FRET donor (Alexa Fluor 555) and a FRET acceptor (Alexa Fluor 647). The efficiency of energy transfer will report the proximity between the donor and acceptor fluorophores and any changes in that distance ([41], [42]). To view receptors under smFRET, the doubly labeled GCGR was surface-immobilized on a PEG-passivated quartz microscope slide using a biotin–streptavidin interaction, as shown in Figure 1A. A biotinylated anti-FLAG antibody was used to capture the FLAG-tagged GCGR (Fig. 1A). A 532 nm laser was used to excite the donor fluorophore by creating the evanescent field from the total internal reflection of the laser beam (Fig. 1A). The emission signals from the donor and acceptor fluorophores were detected by an electron-multiplied back-illuminated CCD camera. […] A control experiment was performed to test the specific immobilization of GCGR–micelle using a biotinylated antibody to a PEG-passivated quartz surface (Fig. S5A). […] Single-molecule fluorescence time trajectories were assessed and analyzed using custom software written in MATLAB.
Single-molecule fluorescence data were recorded using a customized prism-based total internal reflection fluorescence imaging system based on an inverted IX73 microscope (Olympus) equipped with a X60 objective (Olympus, 1.49 numerical aperture, water) as described in earlier publications ([47], [48], [49]). Quartz microscope slides (G. Finkenbeiner) and coverslips (Fisher Scientific #1254588) were cleaned and passivated with polyethylene glycol (m-PEG-SVA) and 3% (w/w) biotin-PEG-SVA (Laysan Bio) to prevent nonspecific protein adsorption, as previously described ([30]). A sample chamber was prepared using double-sided tape (Scotch) on PEGylated slides and coverslips ([48]). The sample chamber was first coated with 0.02 mg/ml NeutrAvidin (ThermoFisher Scientific #PI31000) and washed with T50 buffer (10 mM Tris, pH 7.4, 50 mM NaCl). A […] biotin-conjugated anti-FLAG antibody (GenScript #A01429) was injected and incubated for 20 min, followed by washing with the imaging buffer (25 mM HEPES pH 7.5, 150 mM NaCl, 2 mM Trolox, 0.05% DDM, 0.01% CHS) to remove unbound biotinylated anti-FLAG antibody. The GCGR sample was diluted in an imaging buffer, introduced into the sample chamber, and incubated for 30 min. The sample chamber was washed extensively with an imaging buffer to remove any unbound receptors. Finally, an oxygen scavenging system, 5 mM protocatechuic acid (Sigma #37580), and 3 U/ml protocatechuate-3,4-dioxygenase (Oriental Yeast) ([50]) in the imaging buffer were applied before total internal reflection fluorescence illumination. The sample was excited at […] (CrystaLaser), and emission intensities from both donor and acceptor fluorophores were collected on an EMCCD camera (Andor Technology) with 100 ms integration time using a custom single-molecule data acquisition program ([48]). All single-molecule measurements were performed at room temperature. Single-molecule time trajectories were extracted using scripts written in IDL software (Harris Geospatial Solutions, Inc).

[1] = GCGR labeled Alexa Fluor 555/647 at Cys49 and Cys287, DDM-CHS micelle, room temperature, Gaussian fit
[2] = Gaussian fit of smFRET histogram, ligand-bound GCGR
[3] = calculated from peak centre with Förster equation, R0 51 Å, glucagon-bound GCGR

Row | Compound | smFRET histogram peak location (FRET efficiency), green peak [1] | smFRET histogram peak location (FRET efficiency), red peak [1] | smFRET histogram peak width, green peak [2] | smFRET histogram peak width, red peak [2] | smFRET histogram relative peak area, green peak [2] [%] | smFRET histogram relative peak area, red peak [2] [%] | effect on the FRET distribution relative to apo-GCGR (saturating concentration of antagonist, histogram from 86 molecules) | smFRET histogram peak location (FRET efficiency), blue peak (GCGR labeled Alexa Fluor 555/647 at Cys49 and Cys287, DDM-CHS micelle, room temperature, Gaussian fit, 64 molecules) | smFRET histogram peak width, blue peak [2] | smFRET histogram relative peak area, blue peak [2] [%] | calculated distance, 0.53 FRET state [3] [Å] | calculated distance, 0.67 FRET state [3] [Å] | distance between the two fluorophores, 0.86 FRET state [3] [Å]
1 | COc1ccc2cc(-c3cc(-c4cc(Cl)cc(Cl)c4)nn3[C@@H](C)c3ccc(C(=O)NCCC(=O)O)cc3)ccc2c1 [MK0893] | 0.91 | 0.75 | 0.09 | 0.19 | 47 | 53 | no effect on the FRET distribution relative to the apo-GCGR |  |  |  |  |  | 
2 | glucagon | 0.86 | 0.67 | 0.14 | 0.11 | 59 | 17 |  | 0.53 | 0.24 | 24 | 50.0 | 45.3 | 37.7
